Key:
[1] = tested on: E. coli indicator strain ATCC 27856; test: Antibacterial activity against E. coli indicator strain; assay type: cell-based; conditions: data not shown
20S proteasome = conditions: cited from earlier work

Row | SMILES | antibacterial activity against E. coli [1] | proteasome inhibitory properties (in words) (20S proteasome)
1 | C=C(NC(=O)C(=C)NC(=O)c1csc(C2=N[C@@H]3c4csc(n4)[C@H]4NC(=O)c5csc(n5)[C@H]([C@](C)(O)[C@@H](C)O)NC(=O)[C@H]5CSC(=N5)/C(=C/C)NC(=O)[C@H]([C@@H](C)O)NC(=O)c5csc(n5)[C@]3(CC2)NC(=O)[C@H](C)NC(=O)C(=C)NC(=O)[C@H](C)NC(=O)[C@H]([C@@H](C)CC)N[C@@H]2C=Cc3c([C@H](C)O)cc(nc3[C@H]2O)C(=O)O[C@@H]4C)n1)C(N)=O [Thiostrepton A] | Neither thiostrepton A nor its Ala4 variants displayed any antibacterial activity | active proteasome inhibitors
2 | C/C=C(\NC(=O)c1csc(-c2csc(-c3ccc4c(n3)-c3csc(n3)[C@H]([C@@H](C)O)NC(=O)c3csc(n3)[C@H](C(C)C)NC(=O)c3csc(n3)/C(=C/C)NC(=O)[C@H]([C@@H](C)O)NC(=O)c3csc-4n3)n2)n1)C(=O)NC[C@@H](C)O [micrococcin P1] |  | have not yet revealed any proteasome inhibitory properties
3 | C=C(NC(=O)C(=C)NC(=O)c1csc(C2=NC3c4csc(n4)[C@H]4NC(=O)c5csc(n5)[C@H]([C@](C)(O)[C@@H](C)O)NC(=O)[C@H]5CSC(=N5)/C(=C/C)NC(=O)[C@H]([C@@H](C)O)NC(=O)c5csc(n5)[C@@]3(CC2)NC(=O)[C@H](C)NC(=O)C(=C)NC(=O)C(=C)NC(=O)[C@H](C(C)C)N[C@@H]2C=Cc3c([C@H](C)O)cc(nc3[C@H]2O)C(=O)O[C@@H]4C)n1)C(N)=O (some centres unmarked) [siomycin] |  | active proteasome inhibitors
4 | C/C=C(\NC(=O)c1csc(-c2csc(-c3ccc4c(n3)-c3csc(n3)[C@H]([C@@H](C)O)NC(=O)c3csc(n3)[C@H](C(C)(C)O)NC(=O)c3csc(n3)/C(=C/C)NC(=O)[C@H]([C@@H](C)O)NC(=O)c3csc-4n3)n2)n1)C(=O)NC[C@@H](C)O [thiocillin I] |  | have not yet revealed any proteasome inhibitory properties

From paper PMC4826033 (ACS chemical biology, 2015)
